Laboratory results as given in patent publication US8541572B2.

system: TNF-α production in LPS-stimulated human whole blood; experiment: Inhibition of TNF-α production from human whole blood (hWBA); format: cell-based; conditions: Homo sapiens, IC50 for TNF-α production, LPS-stimulated human whole blood; read-out: hWBA

Compound	IC50
COc1ccc2c(c1)C(=O)N(CC1(C#Cc3cccnc3N3CCN(C)CC3)NC(=O)NC1=O)C2 (centres unmarked) [Compound 2285]	1.23 µM
COc1ccc2c(c1)C(=O)N(C[C@@]1(C#Cc3ccc(-c4cn[nH]c4N)cc3)NC(=O)NC1=O)C2 [Compound 2296]	0.236 µM
COc1ccc2c(c1)C(=O)N(C[C@@]1(C#Cc3cccnc3-c3cn[nH]c3)NC(=O)NC1=O)C2 [Compound 2266]	0.927 µM
COc1ccc2c(c1)C(=O)N(C[C@@]1(C#Cc3ccc(N4CCC5(CC4)NC(=O)NC5=O)nc3)NC(=O)NC1=O)C2 [Compound 2311]	0.348 µM
COc1ccc2c(c1)C(=O)N(C[C@]1(C#Cc3cncc(C(=O)NN)c3)NC(=O)NC1=O)C2 [Compound 2256]	1 µM

same assay, conditions: Homo sapiens, IC50 for inhibition of TNF-α production, LPS-stimulated human whole blood; read-out: hWBA

Compound	IC50
COc1ccc2c(c1)C(=O)N(C[C@@]1(C#Cc3cc(Br)ccc3O)NC(=O)NC1=O)C2 [Compound 2229]	10 µM
COc1ccc2c(c1)C(=O)N(C[C@@]1(C#Cc3nc(-c4cccc(C#N)c4)ccc3OC)NC(=O)NC1=O)C2 [Compound 1501]	1000 µM
COc1ccc2c(c1)C(=O)N(C[C@@]1(C#Cc3cccc(N4CCSCC4)n3)NC(=O)NC1=O)C2 [Compound 997]	4.32 µM
CCN1CCN(C(=O)c2ccc(C#C[C@]3(CN4Cc5ccc(OC)cc5C4=O)NC(=O)NC3=O)cc2)CC1 [Compound 960]	0.446 µM
COc1ccc2c(c1F)C(=O)N(C[C@]1(C#Cc3ccc(CN4CCN(C5CCCCC5)CC4)cc3)NC(=O)NC1=O)C2 [Compound 985]	100 µM
COc1ccc2c(c1)C(=O)N(C[C@@]1(C#Cc3ccc(-n4c(-c5cccnc5)n[nH]c4=O)cc3)NC(=O)NC1=O)C2 [Compound 1916]	0.258 µM
COc1ccc2c(c1)C(=O)N(C[C@@]1(C#Cc3ccc(-c4cnccc4OC)nc3)NC(=O)NC1=O)C2 [Compound 1105]	5.38 µM
COc1ccc2c(c1)C(=O)N(C[C@@]1(C#Cc3ccc(CN4CCN(c5nccs5)CC4)cc3)NC(=O)NC1=O)C2 [Compound 980]	3.13 µM
COc1ccc2c(c1)C(=O)N(C[C@@]1(C#Cc3ccc(C4=NCCN4)c(C)c3)NC(=O)NC1=O)C2 [Compound 1140]	0.504 µM
COc1ccc2c(c1)C(=O)N(CC1(C#Cc3cccc4c3CCC43NC(=O)NC3=O)NC(=O)NC1=O)C2 (centres unmarked) [Compound 1318]	> 1 µM
COc1ccc2c(c1F)C(=O)N(C[C@@]1(C#Cc3ccc(-c4nc(-c5cccnc5)ccc4O)cc3)NC(=O)NC1=O)C2 [Compound 1001]	0.106 µM
COc1ccc2c(c1)C(=O)N(C[C@@]1(C#Cc3ccc(N4CCCCC4)nc3)NC(=O)NC1=O)C2 [Compound 1509]	0.514 µM

same assay, conditions: IC50 for TNF-α production, LPS-stimulated human whole blood; read-out: hWBA

Compound	IC50
COc1ccc2c(c1)C(=O)N(C[C@@]1(C#Cc3ccc(C(=NO)N4CCN(C5CCCCC5)CC4)cc3)NC(=O)NC1=O)C2 [Compound 926]	0.076 µM
COc1ccc2c(c1)C(=O)N(CC1(C#Cc3cnc(N4CCC5(CC4)NC(=O)NC5=O)nc3N)NC(=O)NC1=O)C2 (centres unmarked) [Compound 2310]	0.557 µM
COc1ccc2c(c1)C(=O)N(C[C@@]1(C#Cc3ccc(C(=NO)N4CCSCC4)cc3)NC(=O)NC1=O)C2 [Compound 912]	0.153 µM
COc1ccc2c(c1)C(=O)N(C[C@@]1(C#Cc3ccc(C(=NO)N4CCN(C5CC5)CC4)cc3)NC(=O)NC1=O)C2 [Compound 922]	0.092 µM
COc1ccc2c(c1)C(=O)N(C[C@@]1(C#Cc3ccc4oc(C5(C)NC(=O)NC5=O)c(C)c4c3)NC(=O)NC1=O)C2 (some centres unmarked) [Compound 910]	0.545 µM

same assay, conditions: IC50 for inhibition of TNF-α production, LPS-stimulated human whole blood; read-out: hWBA

Compound	IC50
COc1ccc2c(c1)C(=O)N(C[C@@]1(C#Cc3nc(-c4cnc(N(C)C)nc4)ccc3OC)NC(=O)NC1=O)C2 [Compound 1510]	10 µM
COc1ccc2c(c1F)C(=O)N(C[C@@]1(C#Cc3ccc4c(c3)CN(C)C(=O)N4)NC(=O)NC1=O)C2 [Compound 307]	0.281 µM
COc1ccc2c(c1)C(=O)N(C[C@@]1(C#Cc3ccc(-n4c(C)n[nH]c4=O)cc3)NC(=O)NC1=O)C2 [Compound 1915]	0.243 µM
COc1ccc2c(c1)C(=O)N(C[C@@]1(C#Cc3cncc(-c4cn[nH]c4)c3)NC(=O)NC1=O)C2 [Compound 2207]	0.26 µM
COc1ccc2c(c1F)C(=O)N(C[C@@]1(C#Cc3ccc(-c4nc(-c5cnn(C)c5)ccc4O)c(F)c3)NC(=O)NC1=O)C2 [Compound 987]	0.0754 µM
COc1ccc2c(c1)C(=O)N(C[C@@]1(C#Cc3ccc(N4C(=O)CCC4C(=O)N4CCN(C)CC4)cc3)NC(=O)NC1=O)C2 (some centres unmarked) [Compound 1905]	0.416 µM
COc1ccc2c(c1)C(=O)N(C[C@@]1(C#Cc3nc(N4CCN(c5ccncc5)CC4)ccc3OC)NC(=O)NC1=O)C2 [Compound 2205]	7.27 µM
COc1ccc2c(c1F)C(=O)N(C[C@@]1(C#Cc3ccc(-c4nc(-c5cnn(C)c5)ccc4O)cc3)NC(=O)NC1=O)C2 [Compound 986]	0.087 µM
COc1ccc2c(c1F)C(=O)N(C[C@@]1(C#Cc3ccc(-c4cccc(N5CCN(C6CCCCC6)CC5)n4)cc3)NC(=O)NC1=O)C2 [Compound 993]	0.856 µM
COc1ccc2c(c1)C(=O)N(C[C@@]1(C#Cc3nc(-c4ccc(S(=O)(=O)NC5CC5)cc4)ccc3OC)NC(=O)NC1=O)C2 [Compound 1512]	7.04 µM
COc1ccc2c(c1)C(=O)N(C[C@@]1(C#Cc3ccc4c(c3)c(O)nn4C)NC(=O)NC1=O)C2 [Compound 712]	1.53 µM
COc1ccc2c(c1)C(=O)N(C[C@@]1(C#Cc3cc(F)c4c(O)n[nH]c4c3)NC(=O)NC1=O)C2 [Compound 302]	0.723 µM
CCN1CCN(/C(=N\O)c2ccc(C#C[C@]3(CN4Cc5ccc(OC)c(F)c5C4=O)NC(=O)NC3=O)cc2F)[C@@H](C)C1 [Compound 1311]	0.069 µM
CCN1CCN(C(=O)C2CC(=O)N(c3ccc(C#C[C@]4(CN5Cc6ccc(OC)cc6C5=O)NC(=O)NC4=O)cc3)C2)CC1 (some centres unmarked) [Compound 1319]	0.94 µM
COc1ccc2c(c1)C(=O)N(C[C@@]1(C#Cc3ccc4c(-c5ccncc5)n[nH]c4c3)NC(=O)NC1=O)C2 [Compound 734]	1.01 µM
COc1ccc2c(c1)C(=O)N(C[C@@]1(C#Cc3ccc(C(CN)N4CCC(NC(=O)OC(C)(C)C)C4)cc3)NC(=O)NC1=O)C2 (some centres unmarked) [Compound 1703]	0.316 µM
COc1ccc2c(c1)C(=O)N(C[C@@]1(C#Cc3ccc(-c4c(C)n[nH]c4N)cc3)NC(=O)NC1=O)C2 [Compound 1303]	0.488 µM
CCN1CCN(Cc2ccc(C#C[C@]3(CN4Cc5ccc(OC)c(F)c5C4=O)NC(=O)NC3=O)cn2)CC1 [Compound 978]	0.156 µM
COc1ccc2c(c1)C(=O)N(C[C@@]1(C#Cc3ccc(C(CN)N4CCC(N)C4)cc3)NC(=O)NC1=O)C2 (some centres unmarked) [Compound 1705]	0.233 µM
COc1ccc2c(c1)C(=O)N(C[C@@]1(C#Cc3ccc4c(c3)c(N)nn4CCN(C)C)NC(=O)NC1=O)C2 [Compound 705]	0.101 µM
COc1ccc2c(c1F)C(=O)N(C[C@@]1(C#Cc3ccc(CN4CCSCC4)nc3)NC(=O)NC1=O)C2 [Compound 966]	0.588 µM
COc1ccc2c(c1)C(=O)N(C[C@@]1(C#Cc3ccc4c(CN(C)C)n[nH]c4c3)NC(=O)NC1=O)C2 [Compound 728]	0.163 µM
CCOC(=O)Nc1cncc(C#C[C@]2(CN3Cc4ccc(OC)cc4C3=O)NC(=O)NC2=O)c1 [Compound 2243]	1.23 µM
COCCN1CCN(c2ccc(OC)c(C#C[C@]3(CN4Cc5ccc(OC)cc5C4=O)NC(=O)NC3=O)n2)CC1 [Compound 1507]	5.71 µM
CCN1CCN(c2ccc(O)c(-c3ccc(C#C[C@]4(CN5Cc6ccc(OC)cc6C5=O)NC(=O)NC4=O)cc3F)n2)CC1 [Compound 976]	0.0398 µM
